The structures appear in SMILES notation. Where only a bound is given, the exact number is not on record here.

One experiment has as its target T1, HiBit-BRG1 (Homo sapiens, UniProt P51532).
T1 construct: expressed in transfected cells
The experiment in a line: HiBit-BRG1 cell-based degradation assay (Nano-Glo HiBiT Lytic Detection). As to conditions: HeLa cells expressing HiBit-BRG1 and LgBit, 24 h; for DC50: read-out: BRG1 HiBit Degradation IC50; for Dmax: read-out: BRG1 HiBit Degradation Maximum (%). In a few lines: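 Luminescence from Nano-Glo HiBiT lytic detection, read after 24 h compound exposure, scored degradation in a stable HeLa HiBiT-BRG1/LgBit line seeded at 5000 cells/well. DMSO wells defined 0% and 2 μM known BRM/BRG1 degrader wells defined full degradation.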

The next experiment deals with T2, HiBiT-BRM (Homo sapiens, UniProt P51531).
T2 construct: expressed in transfected cells
T2 sequence (P51531 whole entry): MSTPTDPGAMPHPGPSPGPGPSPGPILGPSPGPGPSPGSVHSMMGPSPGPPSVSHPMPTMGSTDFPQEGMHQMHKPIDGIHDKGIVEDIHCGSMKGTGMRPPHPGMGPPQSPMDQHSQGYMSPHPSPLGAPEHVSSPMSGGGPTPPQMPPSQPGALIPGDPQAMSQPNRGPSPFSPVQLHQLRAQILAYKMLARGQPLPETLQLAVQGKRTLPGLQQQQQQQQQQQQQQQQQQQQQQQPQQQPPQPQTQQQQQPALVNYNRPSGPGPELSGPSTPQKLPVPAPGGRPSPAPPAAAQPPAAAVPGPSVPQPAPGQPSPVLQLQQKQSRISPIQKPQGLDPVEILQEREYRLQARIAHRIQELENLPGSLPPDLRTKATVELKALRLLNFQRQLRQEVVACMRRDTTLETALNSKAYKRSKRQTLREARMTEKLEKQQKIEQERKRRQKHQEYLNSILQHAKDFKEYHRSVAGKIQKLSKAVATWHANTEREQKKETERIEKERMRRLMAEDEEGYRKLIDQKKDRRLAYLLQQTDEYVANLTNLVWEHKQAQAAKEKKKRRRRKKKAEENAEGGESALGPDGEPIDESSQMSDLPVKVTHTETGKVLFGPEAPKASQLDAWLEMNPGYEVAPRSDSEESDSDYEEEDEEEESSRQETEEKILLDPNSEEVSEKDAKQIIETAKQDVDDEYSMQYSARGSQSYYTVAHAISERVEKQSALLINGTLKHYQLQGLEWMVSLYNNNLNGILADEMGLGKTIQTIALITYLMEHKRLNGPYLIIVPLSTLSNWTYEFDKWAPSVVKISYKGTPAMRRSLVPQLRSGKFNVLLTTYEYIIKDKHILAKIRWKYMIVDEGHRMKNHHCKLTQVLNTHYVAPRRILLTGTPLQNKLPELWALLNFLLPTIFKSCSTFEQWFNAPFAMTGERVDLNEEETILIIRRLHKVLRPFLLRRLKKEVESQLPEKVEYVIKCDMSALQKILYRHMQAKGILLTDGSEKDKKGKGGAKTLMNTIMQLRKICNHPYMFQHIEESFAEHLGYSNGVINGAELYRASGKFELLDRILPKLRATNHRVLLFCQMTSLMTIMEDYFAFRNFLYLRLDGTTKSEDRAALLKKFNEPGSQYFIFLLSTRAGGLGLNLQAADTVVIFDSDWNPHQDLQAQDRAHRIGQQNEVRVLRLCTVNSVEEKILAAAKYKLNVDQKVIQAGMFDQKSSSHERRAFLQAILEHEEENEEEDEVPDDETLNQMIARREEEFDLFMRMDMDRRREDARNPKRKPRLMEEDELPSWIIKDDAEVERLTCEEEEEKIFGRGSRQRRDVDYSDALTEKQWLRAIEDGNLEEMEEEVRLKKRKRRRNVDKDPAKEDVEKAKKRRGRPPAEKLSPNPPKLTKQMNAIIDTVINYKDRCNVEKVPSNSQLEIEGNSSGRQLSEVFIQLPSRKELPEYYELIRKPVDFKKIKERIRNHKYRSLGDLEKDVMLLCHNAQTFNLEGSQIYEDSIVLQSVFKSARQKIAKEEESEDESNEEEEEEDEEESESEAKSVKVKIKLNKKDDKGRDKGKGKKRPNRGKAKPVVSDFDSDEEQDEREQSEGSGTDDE
The experiment in a line: HiBiT-BRM cell-based degradation assay (Nano-Glo HiBiT Lytic Detection). The note with it: HeLa cells expressing HiBiT-BRM, 24 h; for DC50: read-out: BRM HiBit Degradation IC50. In a few lines: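 HeLa cells stably expressing HiBiT-tagged BRM were treated for 24 h, then lysed with LgBiT-containing Nano-Glo reagent and luminescence read. % degradation scaled between DMSO (high control) and 2 μM reference BRM/BRG1 degrader (low control).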
(In general: HiBiT is a short tag that completes a luciferase, so light tracks the accessible tagged protein.)

T1 sequence (P51532 whole entry): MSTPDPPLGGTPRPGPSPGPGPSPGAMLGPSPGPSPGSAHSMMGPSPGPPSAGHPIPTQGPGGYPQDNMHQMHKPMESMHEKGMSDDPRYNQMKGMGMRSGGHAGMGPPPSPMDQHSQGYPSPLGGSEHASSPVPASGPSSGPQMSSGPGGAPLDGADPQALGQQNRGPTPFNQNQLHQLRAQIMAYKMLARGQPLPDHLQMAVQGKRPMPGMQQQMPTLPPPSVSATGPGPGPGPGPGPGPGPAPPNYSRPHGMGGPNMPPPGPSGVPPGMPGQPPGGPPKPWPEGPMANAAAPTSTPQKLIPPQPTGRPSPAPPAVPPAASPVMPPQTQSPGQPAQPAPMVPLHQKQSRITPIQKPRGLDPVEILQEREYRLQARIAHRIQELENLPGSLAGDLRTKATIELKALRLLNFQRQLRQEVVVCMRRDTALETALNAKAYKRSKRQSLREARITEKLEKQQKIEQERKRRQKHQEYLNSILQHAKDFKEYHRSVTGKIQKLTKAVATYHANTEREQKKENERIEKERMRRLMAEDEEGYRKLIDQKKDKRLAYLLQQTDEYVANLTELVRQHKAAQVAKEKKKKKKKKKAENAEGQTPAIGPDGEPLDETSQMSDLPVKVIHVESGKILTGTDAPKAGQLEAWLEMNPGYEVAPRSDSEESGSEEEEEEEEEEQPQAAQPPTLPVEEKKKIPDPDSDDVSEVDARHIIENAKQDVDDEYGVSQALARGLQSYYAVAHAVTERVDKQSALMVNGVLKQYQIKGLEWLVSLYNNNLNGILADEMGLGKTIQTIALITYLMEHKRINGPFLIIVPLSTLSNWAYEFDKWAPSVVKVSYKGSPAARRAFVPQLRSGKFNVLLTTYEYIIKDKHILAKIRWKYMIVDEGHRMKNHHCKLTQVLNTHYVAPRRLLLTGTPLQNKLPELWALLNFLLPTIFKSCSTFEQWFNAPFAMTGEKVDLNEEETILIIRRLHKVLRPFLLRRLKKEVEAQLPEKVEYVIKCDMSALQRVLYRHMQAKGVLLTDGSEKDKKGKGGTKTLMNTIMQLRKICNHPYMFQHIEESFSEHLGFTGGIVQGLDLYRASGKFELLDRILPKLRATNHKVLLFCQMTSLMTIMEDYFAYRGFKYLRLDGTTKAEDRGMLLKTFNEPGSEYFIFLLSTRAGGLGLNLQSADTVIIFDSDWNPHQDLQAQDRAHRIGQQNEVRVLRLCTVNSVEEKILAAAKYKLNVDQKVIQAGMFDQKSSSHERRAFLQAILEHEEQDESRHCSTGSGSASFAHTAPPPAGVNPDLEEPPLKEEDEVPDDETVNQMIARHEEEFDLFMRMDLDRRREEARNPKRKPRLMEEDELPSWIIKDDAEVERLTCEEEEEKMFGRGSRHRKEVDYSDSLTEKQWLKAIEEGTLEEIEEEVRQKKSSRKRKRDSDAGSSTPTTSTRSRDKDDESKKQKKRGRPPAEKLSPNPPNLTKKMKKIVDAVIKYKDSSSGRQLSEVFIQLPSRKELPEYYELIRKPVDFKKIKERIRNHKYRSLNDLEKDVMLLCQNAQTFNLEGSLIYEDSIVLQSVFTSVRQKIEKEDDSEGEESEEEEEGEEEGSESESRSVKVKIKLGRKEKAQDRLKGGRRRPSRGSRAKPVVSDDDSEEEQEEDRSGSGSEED

With `Nc1nnc(-c2cccc(Cl)c2O)cc1OCCc1ccc(CNCCCCCOc2cccc3c2C(=O)N(C2CCC(=O)NC2=O)C3=O)cc1` (stereo not drawn) [Compound 124, 4-((5-((4-(2-((3-amino-6-(3-chloro-2-hydroxyphenyl)pyridazin-4-yl)oxy)ethyl)benzyl)amino)pentyl)oxy)-2-(2,6-dioxopiperidin-3-yl)isoindoline-1,3-dione], on HiBit-BRG1, the DC50 is greater than 1000 nM and the Dmax was less than 50%. Further, at HiBiT-BRM, the “BRM HiBit Degradation Maximum (%)” value is “C (“C” indicates maximum degradation <50%)” and the DC50 was greater than 1000 nM.

In the case of `Nc1nnc(-c2ccccc2O)cc1OCCc1ccc(CNC(=O)CCCCOc2cccc3c2CN(C2CCC(=O)NC2=O)C3=O)cc1` (stereo not drawn) [Compound 130, N-(4-(2-((3-amino-6-(2-hydroxyphenyl)pyridazin-4-yl)oxy)ethyl)benzyl)-5-((2-(2,6-dioxopiperidin-3-yl)-1-oxoisoindolin-4-yl)oxy)pentanamide], on HiBit-BRG1, the DC50 is greater than 1000 nM and the Dmax was less than 50%. Moreover, at HiBiT-BRM, the “BRM HiBit Degradation Maximum (%)” value is given as “C (“C” indicates maximum degradation <50%)” and the DC50 is greater than 1000 nM.

Take `CN(CCNC(=O)CN1CCN(c2cc(-c3ccccc3O)nnc2N)CC1)CCNc1cccc2c1C(=O)N(C1CCC(=O)NC1=O)C2=O` (stereo not drawn) [Compound 96, 2-(4-(3-amino-6-(2-hydroxyphenyl)pyridazin-4-yl)piperazin-1-yl)-N-(2-((2-((2-(2,6-dioxopiperidin-3-yl)-1,3-dioxoisoindolin-4-yl)amino)ethyl)(methyl)amino)ethyl)acetamide]: on HiBit-BRG1, the DC50 is greater than 1000 nM and the Dmax is less than 50%. For the same compound, at HiBiT-BRM, the “BRM HiBit Degradation Maximum (%)” value is on record as “C (“C” indicates maximum degradation <50%)” and the DC50 is greater than 1000 nM.

With `Nc1nnc(-c2ccccc2O)cc1OCCc1ccc(C(=O)NCCCCCCCCNc2cccc3c2CN(C2CCC(=O)NC2=O)C3=O)cc1` (stereo not drawn) [Compound 56], on HiBit-BRG1, the DC50 was greater than 1000 nM and the Dmax was less than 50%. For the same compound, at HiBiT-BRM, the “BRM HiBit Degradation Maximum (%)” value is given as “C (“C” indicates maximum degradation <50%)” and the DC50 is greater than 1000 nM.

On to `Cc1ncsc1-c1ccc(CNC(=O)[C@@H]2C[C@@H](O)CN2C(=O)[C@@H](NC(=O)CCCCCCCCCCC(=O)NCc2ccc(CCOc3cc(-c4ccccc4O)nnc3N)cc2)C(C)(C)C)cc1` [Compound 37], for which, on HiBit-BRG1, the DC50 was greater than 1000 nM and the Dmax was less than 50%. Further, at HiBiT-BRM, the “BRM HiBit Degradation Maximum (%)” value is “B (“B” indicates maximum degradation ≥50%)” and the DC50 was greater than 100 nM.

With `Nc1nnc(-c2ccccc2O)cc1OCCc1ccc(CNCCCC2CN(c3ccc4c(c3)C(=O)N(C3CCC(=O)NC3=O)C4=O)C2)cc1` (stereo not drawn) [Compound 123, 5-[3-[3-([[4-(2-[[3-amino-6-(2-hydroxyphenyl)pyridazin-4-yl]oxy]ethyl)phenyl]methyl]amino)propyl]azetidin-1-yl]-2-(2,6-dioxopiperidin-3-yl)isoindole-1,3-dione], at HiBit-BRG1, the DC50 is greater than 1000 nM and the Dmax is less than 50%. Also, on HiBiT-BRM, the “BRM HiBit Degradation Maximum (%)” value is reported as “B (“B” indicates maximum degradation ≥50%)” and the DC50 was greater than 10 nM.

For the compound `Cc1ncsc1-c1ccc(CNC(=O)[C@@H]2C[C@@H](O)CN2C(=O)[C@@H](NC(=O)COCCOCCOCCNC(=O)CN2CCN(c3cc(-c4ccccc4O)nnc3N)CC2)C(C)(C)C)cc1` [Compound 86, (2S,4R)-1-[(2S)-2-[2-(2-[2-[2-(2-[4-[3-amino-6-(2-hydroxyphenyl)pyridazin-4-yl]piperazin-1-yl]acetamido)ethoxy]ethoxy]ethoxy)acetamido]-3,3-dimethylbutanoyl]-4-hydroxy-N-[[4-(4-methyl-1,3-thiazol-5-yl)phenyl]methyl]pyrrolidine-2-carboxamide], at HiBit-BRG1, the DC50 was greater than 1000 nM and the Dmax is less than 50%. In addition, at HiBiT-BRM, the “BRM HiBit Degradation Maximum (%)” value is on record as “C (“C” indicates maximum degradation <50%)” and the DC50 was greater than 1000 nM.

Regarding `Nc1nnc(-c2ccccc2O)cc1OCCc1ccc(CNC(=O)CCCCNc2ccc3c(c2)CN(C2CCC(=O)NC2=O)C3=O)cc1` (stereo not drawn) [Compound 137, N-(4-(2-((3-amino-6-(2-hydroxyphenyl)pyridazin-4-yl)oxy)ethyl)benzyl)-5-((2-(2,6-dioxopiperidin-3-yl)-1-oxoisoindolin-5-yl)amino)pentanamide], on HiBit-BRG1, the DC50 is greater than 1000 nM and the Dmax was less than 50%. Also, on HiBiT-BRM, the “BRM HiBit Degradation Maximum (%)” value is “C (“C” indicates maximum degradation <50%)” and the DC50 is greater than 1000 nM.

With `Cc1ncsc1-c1ccc(CNC(=O)[C@@H]2C[C@@H](O)CN2C(=O)[C@@H](NC(=O)CCCCN2CCN(CCOc3cc(N4[C@@H]5CC[C@H]4CN(c4cc(-c6ccccc6O)nnc4N)C5)ccn3)CC2)C(C)(C)C)cc1` [Compound 234, (2S,4R)-1-((2S)-2-(5-(4-(2-((4-(3-(3-amino-6-(2-hydroxyphenyl)pyridazin-4-yl)-3,8-diazabicyclo[3.2.1]octan-8-yl)pyridin-2-yl)oxy)ethyl)piperazin-1-yl)pentanamido)-3,3-dimethylbutanoyl)-4-hydroxy-N-(4-(4-methylthiazol-5-yl)benzyl)pyrrolidine-2-carboxamide], at HiBit-BRG1, the DC50 is greater than 1000 nM and the Dmax was less than 50%. Besides, on HiBiT-BRM, the “BRM HiBit Degradation Maximum (%)” value is on record as “A (“A” indicates maximum degradation ≥75%)” and the DC50 was greater than 100 nM.

Regarding `Cc1ncsc1-c1ccc(CNC(=O)[C@@H]2C[C@@H](O)CN2C(=O)[C@@H](NC(=O)CCN2CCC(OC3CN(C(=O)c4ccc(CCOc5cc(-c6ccccc6O)nnc5N)cc4)C3)CC2)C(C)(C)C)cc1` [Compound 245, (2S,4R)-1-((S)-2-(3-(4-((1-(4-(2-((3-amino-6-(2-hydroxyphenyl)pyridazin-4-yl)oxy)ethyl)benzoyl)azetidin-3-yl)oxy)piperidin-1-yl)propanamido)-3,3-dimethylbutanoyl)-4-hydroxy-N-(4-(4-methylthiazol-5-yl)benzyl)pyrrolidine-2-carboxamide], at HiBit-BRG1, the DC50 was greater than 1000 nM and the Dmax is less than 50%. For the same compound, at HiBiT-BRM, the “BRM HiBit Degradation Maximum (%)” value is on record as “B (“B” indicates maximum degradation ≥50%)” and the DC50 is greater than 1000 nM.

For `Cc1ncsc1-c1ccc(CNC(=O)[C@@H]2C[C@@H](O)CN2C(=O)[C@@H](NC(=O)CCN2CCN(CCOc3cc(N4[C@@H]5CC[C@H]4CN(c4cc(-c6ccccc6O)nnc4N)C5)ccn3)CC2)C(C)(C)C)cc1` [Compound 232, (2S,4R)-1-((2S)-2-(3-(4-(2-((4-(3-(3-amino-6-(2-hydroxyphenyl)pyridazin-4-yl)-3,8-diazabicyclo[3.2.1]octan-8-yl)pyridin-2-yl)oxy)ethyl)piperazin-1-yl)propanamido)-3,3-dimethylbutanoyl)-4-hydroxy-N-(4-(4-methylthiazol-5-yl)benzyl)pyrrolidine-2-carboxamide], at HiBit-BRG1, the DC50 was greater than 1000 nM and the Dmax was less than 50%. On HiBiT-BRM, the “BRM HiBit Degradation Maximum (%)” value was “A (“A” indicates maximum degradation ≥75%)” and the DC50 is greater than 100 nM.

With `Cc1ncsc1-c1ccc(CNC(=O)[C@@H]2C[C@@H](O)CN2C(=O)[C@@H](NC(=O)CCN2CCN(CC(=O)NCc3ccc(CCOc4cc(-c5ccccc5O)nnc4N)cc3)CC2)C(C)(C)C)cc1` [Compound 179, (2S,4R)-1-[(2S)-2-(3-[4-[([[4-(2-[[3-amino-6-(2-hydroxyphenyl)pyridazin-4-yl]oxy]ethyl)phenyl]methyl]carbamoyl)methyl]piperazin-1-yl]propanamido)-3,3-dimethylbutanoyl]-4-hydroxy-N-[[4-(4-methyl-1,3-thiazol-5-yl)phenyl]methyl]pyrrolidine-2-carboxamide], on HiBit-BRG1, the DC50 is greater than 1000 nM and the Dmax is less than 50%. Further, at HiBiT-BRM, the “BRM HiBit Degradation Maximum (%)” value is “C (“C” indicates maximum degradation <50%)” and the DC50 was greater than 1000 nM.

For the compound `Nc1nnc(-c2ccccc2O)cc1OCCc1ccc(CNCCCCNc2cccc3c2C(=O)N(C2CCC(=O)NC2=O)C3=O)cc1` (stereo not drawn) [Compound 107, 4-[[4-([[4-(2-[[3-amino-6-(2-hydroxyphenyl)pyridazin-4-yl]oxy]ethyl)phenyl]methyl]amino)butyl]amino]-2-(2,6-dioxopiperidin-3-yl)isoindole-1,3-dione], on HiBit-BRG1, the DC50 is greater than 1000 nM and the Dmax was greater than 50%. Further, at HiBiT-BRM, the “BRM HiBit Degradation Maximum (%)” value is “C (“C” indicates maximum degradation <50%)” and the DC50 is greater than 1000 nM.

Regarding `Nc1nnc(-c2ccccc2O)cc1OCCc1ccc(CNC(=O)CCCOc2cccc3c2C(=O)N(C2CCC(=O)NC2=O)C3=O)cc1` (stereo not drawn) [Compound 65, N-[[4-(2-[[3-amino-6-(2-hydroxyphenyl)pyridazin-4-yl]oxy]ethyl)phenyl]methyl]-4-[[2-(2,6-dioxopiperidin-3-yl)-1,3-dioxoisoindol-4-yl]oxy]butanamide], on HiBit-BRG1, the DC50 was greater than 1000 nM and the Dmax is less than 50%. For the same compound, on HiBiT-BRM, the “BRM HiBit Degradation Maximum (%)” value is “C (“C” indicates maximum degradation <50%)” and the DC50 is greater than 1000 nM.

With `Nc1nnc(-c2ccccc2O)cc1OCCc1ccc(C(=O)NCCOCCOCCNc2cccc3c2CN(C2CCC(=O)NC2=O)C3=O)cc1` (stereo not drawn) [Compound 54, 4-(2-[[3-amino-6-(2-hydroxyphenyl)pyridazin-4-yl]oxy]ethyl)-N-[2-[2-(2-[[2-(2,6-dioxopiperidin-3-yl)-1-oxo-3H-isoindol-4-yl]amino]ethoxy)ethoxy]ethyl]benzamide], at HiBit-BRG1, the DC50 was greater than 1000 nM and the Dmax was less than 50%. For the same compound, at HiBiT-BRM, the “BRM HiBit Degradation Maximum (%)” value was “C (“C” indicates maximum degradation <50%)” and the DC50 is greater than 1000 nM.

Source of the values: patent US20230150974A1 (Foghorn Therapeutics Inc., priority 2020, published 2023).
